# From ChEMBL document CHEMBL1201862, “PubChem BioAssay data set” (2004)
# Active and inactive are the calls of the source.
# Key:
# Paired box protein Pax-8 = Paired box protein Pax-8 (Homo sapiens, UniProt Q06710); assay: inhibitors of PAX8-driven TPO luciferase reporter, dose response, RMG-I cells, cherry-pick (AID 687027); format: functional, cell-based;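 further: luciferase reporter driven by Pax8 target thyroperoxidase promoter measured by SteadyGlo luminescence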
# [1] = Shn3 3'UTR reporter inhibitors, dose response, cell-based, Clone20 osteoblasts, firefly luciferase, cherry-picked (AID 624132); format: functional;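 further: firefly luciferase luminescence from reporter carrying the Shn3 3'UTR in osteoblasts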
# [2] = HepG2 cell cytotoxicity, dose response, cytotoxicity control for Shn3 inhibitor project, CellTiter-Glo, cherry-picked (AID 624134); format: functional, cell-based
# [3] = control 3'UTR Renilla luciferase suppression, dose response, counter-screen for Shn3 inhibitor project, cell-based, Clone20-Shn3RL, cherry-picked (AID 624133); format: functional
# [4] = inhibitors of clade B AD8 Env fusion, dose response, cell-based, cherry-pick (AID 652062); format: functional;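 further: luciferase signal from cell-cell fusion driven by HIV-1 clade B AD8 Env; potency is for inhibitors of fusion seen as a drop in luminescence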
# [5] = growth suppression of PTEN-null colon cells, dose response, cell-based, HCT116 PTEN knockout (AID 1047); format: functional;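 further: HCT116 colon tumor cells with PTEN knocked out; cells exposed to compound for 60 hours before readout; potency for loss of cell viability measured by luminescence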
# [6] = growth suppression of beta-catenin-knockout colon cells, dose response, cell-based, HCT116, human colon tumor (AID 1045); format: functional;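 further: HCT116 colon tumor cells with beta catenin knocked out; cells exposed to compound for 60 hours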
# [7] = target: T1, Short transient receptor potential channel 4 (Mus musculus, UniProt Q9QUQ5); assay: mouse TRPC4 channel activators, dose response, cell-based, HEK293 TRPC4/mu-opioid, Fluo-4 calcium (AID 434937); format: functional
# T1 sequence (Q9QUQ5 whole entry): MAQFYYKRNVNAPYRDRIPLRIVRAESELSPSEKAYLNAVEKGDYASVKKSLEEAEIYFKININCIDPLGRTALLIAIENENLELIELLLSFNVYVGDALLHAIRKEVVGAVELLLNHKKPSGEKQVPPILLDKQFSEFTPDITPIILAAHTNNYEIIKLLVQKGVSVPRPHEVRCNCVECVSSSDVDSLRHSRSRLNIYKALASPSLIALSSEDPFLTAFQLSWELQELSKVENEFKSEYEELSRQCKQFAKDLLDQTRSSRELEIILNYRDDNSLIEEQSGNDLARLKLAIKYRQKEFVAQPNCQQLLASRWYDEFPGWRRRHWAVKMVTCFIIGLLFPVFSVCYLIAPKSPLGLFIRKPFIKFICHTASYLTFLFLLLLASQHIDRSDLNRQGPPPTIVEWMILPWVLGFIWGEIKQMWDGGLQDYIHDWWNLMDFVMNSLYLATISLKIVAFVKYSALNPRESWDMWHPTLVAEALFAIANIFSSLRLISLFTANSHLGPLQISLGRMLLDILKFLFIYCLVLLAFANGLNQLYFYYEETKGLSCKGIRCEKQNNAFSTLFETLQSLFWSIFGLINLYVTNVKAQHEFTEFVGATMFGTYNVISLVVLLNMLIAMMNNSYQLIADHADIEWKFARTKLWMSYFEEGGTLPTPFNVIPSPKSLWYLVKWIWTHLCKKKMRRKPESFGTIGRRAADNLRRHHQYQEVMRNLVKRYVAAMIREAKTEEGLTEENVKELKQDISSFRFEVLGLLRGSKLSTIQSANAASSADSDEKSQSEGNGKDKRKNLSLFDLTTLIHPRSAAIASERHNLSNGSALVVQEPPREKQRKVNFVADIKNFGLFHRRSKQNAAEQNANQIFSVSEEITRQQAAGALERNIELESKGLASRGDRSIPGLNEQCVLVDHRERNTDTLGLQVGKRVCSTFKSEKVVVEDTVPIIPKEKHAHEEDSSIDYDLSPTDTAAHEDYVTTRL
# cells [8] = format: functional, cell-based
# cells [9] = format: functional, cell-based; remark: listed apart in the source
# [10] = Luminescence Cell-Based Dose Retest to Confirm Inhibitors of Cancer Stem Cells. [Related pubchem assays (depositor defined):AID2717, AID2721]; format: functional; settings: Homo sapiens
# Cytochrome P450 2D6 = Cytochrome P450 2D6 (Homo sapiens, UniProt P10635);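 further: CYP2D6 member of a cytochrome P450 panel assay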
# Chain of Cytochrome P450 2D6 (P10635 whole entry): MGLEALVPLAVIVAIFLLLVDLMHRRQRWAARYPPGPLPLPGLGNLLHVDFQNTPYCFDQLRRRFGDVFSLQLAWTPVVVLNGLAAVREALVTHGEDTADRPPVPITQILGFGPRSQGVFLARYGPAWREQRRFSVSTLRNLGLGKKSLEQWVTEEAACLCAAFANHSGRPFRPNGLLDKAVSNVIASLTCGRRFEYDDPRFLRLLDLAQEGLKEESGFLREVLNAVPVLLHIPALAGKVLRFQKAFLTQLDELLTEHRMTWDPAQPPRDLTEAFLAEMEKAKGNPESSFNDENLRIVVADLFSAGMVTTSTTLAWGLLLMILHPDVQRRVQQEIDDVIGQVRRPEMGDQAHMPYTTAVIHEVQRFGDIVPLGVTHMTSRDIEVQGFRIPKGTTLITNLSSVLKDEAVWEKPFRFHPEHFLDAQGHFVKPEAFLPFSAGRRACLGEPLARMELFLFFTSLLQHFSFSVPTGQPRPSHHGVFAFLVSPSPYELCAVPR
# Cytochrome P450 2C9 = Cytochrome P450 2C9 (Homo sapiens, UniProt P11712)
# Chain of Cytochrome P450 2C9 (P11712 whole entry): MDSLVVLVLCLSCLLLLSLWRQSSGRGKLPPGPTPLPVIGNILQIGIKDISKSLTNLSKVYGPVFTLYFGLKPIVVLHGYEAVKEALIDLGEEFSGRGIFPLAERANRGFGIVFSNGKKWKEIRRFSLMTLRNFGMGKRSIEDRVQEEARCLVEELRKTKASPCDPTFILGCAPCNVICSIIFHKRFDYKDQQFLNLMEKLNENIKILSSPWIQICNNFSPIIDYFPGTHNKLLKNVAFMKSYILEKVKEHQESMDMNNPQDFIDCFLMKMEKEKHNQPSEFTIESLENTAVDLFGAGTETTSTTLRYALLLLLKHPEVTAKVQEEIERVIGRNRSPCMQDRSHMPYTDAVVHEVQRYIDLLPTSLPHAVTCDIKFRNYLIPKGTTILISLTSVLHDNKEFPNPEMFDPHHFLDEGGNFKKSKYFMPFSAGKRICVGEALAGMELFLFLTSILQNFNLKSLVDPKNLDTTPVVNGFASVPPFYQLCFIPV
# [11] = target: T2, Heat shock factor protein 1 (Mus musculus, UniProt P38532); assay: inhibition of MG132-induced HSE-luciferase signal, confirmation, cell-based, NIH3T3, luminescence, dose retest (AID 2382); format: functional;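 further: NIH3T3 fibroblasts with HSF1-driven luciferase reporter stressed by proteasome inhibitor MG132; luminescence from HSF1-driven luciferase expression after 8 hours of MG132 stress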
# T2 sequence (P38532 whole entry): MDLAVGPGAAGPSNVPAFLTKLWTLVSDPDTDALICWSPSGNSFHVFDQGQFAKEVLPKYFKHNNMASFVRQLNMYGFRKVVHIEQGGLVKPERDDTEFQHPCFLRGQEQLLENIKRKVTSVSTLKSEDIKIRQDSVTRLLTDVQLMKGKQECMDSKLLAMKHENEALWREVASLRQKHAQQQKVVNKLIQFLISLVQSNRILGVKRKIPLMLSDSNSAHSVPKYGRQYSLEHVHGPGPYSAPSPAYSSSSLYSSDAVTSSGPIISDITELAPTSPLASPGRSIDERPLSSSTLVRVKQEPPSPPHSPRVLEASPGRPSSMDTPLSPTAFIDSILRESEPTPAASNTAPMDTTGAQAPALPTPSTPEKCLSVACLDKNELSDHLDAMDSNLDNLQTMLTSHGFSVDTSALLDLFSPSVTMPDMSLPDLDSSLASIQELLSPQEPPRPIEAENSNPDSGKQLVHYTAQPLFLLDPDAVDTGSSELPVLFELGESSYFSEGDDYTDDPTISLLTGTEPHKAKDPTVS
# H9c2 = assay: cells; format: functional, cell-based; settings: Rattus norvegicus, H9c2, Myocardium;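 further: confirmatory concentration-response retest of ultra-high-throughput screening hits for modulation of myocardial damage; cell death induced by hydrogen peroxide oxidative stress; compound pretreatment for 60 min then peroxide exposure for 2 h; potency is for protecting the cells against peroxide damage rather than for killing them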
# [12] = HEp-2 cell cytotoxicity, dose response, cytotoxicity control for RSV inhibitor project, HTS (AID 2410); format: functional; settings: human respiratory syncytial virus
# [13] = system: Streptococcus sp. 'group A'; assay: growth inhibition of control SK(-) GAS strain, dose response, counter-screen for streptokinase expression inhibitor project, luminescence, kanamycin, BacTiterGlo, confirmation (AID 1900); format: functional, organism-based
# Streptokinase A = target: T3, Streptokinase A (Streptococcus pyogenes serotype M1, UniProt P10520); assay: S. pyogenes streptokinase expression inhibitors, potency, dose response, plasminogen activation absorbance, OD405 (AID 1914); format: functional, Streptococcus pyogenes M1 GAS;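 further: secreted streptokinase activity via plasminogen activation per viability signal from cell pellet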
# T3 sequence (P10520 whole entry): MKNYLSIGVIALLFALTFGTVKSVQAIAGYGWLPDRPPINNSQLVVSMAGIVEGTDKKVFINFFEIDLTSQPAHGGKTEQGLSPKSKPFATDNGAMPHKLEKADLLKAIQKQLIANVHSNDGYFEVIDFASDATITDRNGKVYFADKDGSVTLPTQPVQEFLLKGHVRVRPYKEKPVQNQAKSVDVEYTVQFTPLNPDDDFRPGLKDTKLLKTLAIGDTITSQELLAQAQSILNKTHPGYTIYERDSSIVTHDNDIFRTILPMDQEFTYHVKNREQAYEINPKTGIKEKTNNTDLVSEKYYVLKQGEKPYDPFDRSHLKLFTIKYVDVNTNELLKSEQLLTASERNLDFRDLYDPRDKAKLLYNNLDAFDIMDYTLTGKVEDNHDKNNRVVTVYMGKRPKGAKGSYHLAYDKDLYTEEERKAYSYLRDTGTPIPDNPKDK
# Streptococcus = assay: Group A Streptococcus viability loss, dose response, counter-screen for streptokinase expression inhibitor project, luminescence, BacTiterGlo (AID 1915); format: functional, organism-based;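 further: potency for reduction of bacterial viability or growth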
# [14] = target: T2, Heat shock factor protein 1; assay: HSF1 potentiators in luciferase reporter cells, confirmation, cell-based, NIH3T3, luminescence, dose retest (AID 435004); format: functional;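 further: stress induced by proteasome inhibitor MG132 added 30 min after compound; luciferase reporter driven by HSF1 response element in NIH3T3 cells; actives raise luminescence as potentiators of the MG132 stress response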
# [15] = inhibitors of HIV Env-driven cell fusion, dose response, cherry-pick (AID 652057); format: functional, cell-based
# [16] = ZM109 Env clade C HIV-1 fusion inhibitors, dose response, HeLa effector, CEM target cells, luciferase, cherry-pick (AID 652058); format: functional, cell-based
# Chain of Paired box protein Pax-8 (Q06710 whole entry): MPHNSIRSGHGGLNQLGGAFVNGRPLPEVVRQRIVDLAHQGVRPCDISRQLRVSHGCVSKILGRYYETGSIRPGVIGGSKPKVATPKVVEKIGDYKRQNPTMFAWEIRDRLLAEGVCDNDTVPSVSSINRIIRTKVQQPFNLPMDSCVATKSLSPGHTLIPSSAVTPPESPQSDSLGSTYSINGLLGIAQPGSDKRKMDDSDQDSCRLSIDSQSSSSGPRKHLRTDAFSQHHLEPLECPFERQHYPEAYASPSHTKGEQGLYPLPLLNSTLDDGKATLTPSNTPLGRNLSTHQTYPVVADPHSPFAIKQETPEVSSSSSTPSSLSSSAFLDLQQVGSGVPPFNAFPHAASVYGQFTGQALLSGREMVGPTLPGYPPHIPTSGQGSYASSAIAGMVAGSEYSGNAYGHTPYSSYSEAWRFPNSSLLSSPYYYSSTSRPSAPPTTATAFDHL
smiles,measurement,setting,value
CN(Cc1ccccc1)N=Nc1[nH]cnc1C(N)=O,AC50,Paired box protein Pax-8,21.2 µM (active)
CN(Cc1ccc(OC(F)F)cc1)C(=O)c1cccc(S(=O)(=O)N2CCN(c3ccccc3)CC2)c1,AC50,[1],2.59 µM (active)
same,AC50,[2],62.1 µM (active)
same,AC50,[3],1.65 µM (active)
CS(=O)(=O)Nc1ccc2c(c1)[C@H]1C[C@H](CC(=O)NCc3ccc(-c4ccccc4)cc3)O[C@H](CO)[C@H]1O2,AC50,[4],39 µM (active)
Cc1ccc(S(=O)(=O)N2CCN(CC(=O)N/N=C\C(Cl)=C\c3ccccc3)CC2)cc1,EC50,[5],44.2 µM (active)
same,EC50,[6],39.3 µM (active)
Cc1cccc(NC(S)=NCC(c2ccccc2)N(C)C)c1 (centres undefined),EC50,[7],119 nM (active)
COc1ccc(/C=C2\SC(=O)N(CCC(=O)N(C)C3CCS(=O)(=O)C3)C2=O)cc1 (centres undefined),EC50,cells [8],> 350 µM (not active)
same,EC50,cells [9],> 350 µM (not active)
CC1CC/C(=C\c2ccc3c(c2)OCO3)C(=O)/C1=C/c1ccc2c(c1)OCO2 (centres undefined),EC50,[5],13.8 µM (active)
same,EC50,[6],14.3 µM (active)
same,AC50,[10],2.92 µM (active)
same,AC50,Cytochrome P450 2D6,2.51 µM (inconclusive)
same,AC50,Cytochrome P450 2C9,6.31 µM (inconclusive)
COc1ccc2nc(O)c(CN(Cc3cccnc3)S(=O)(=O)c3ccccc3F)cc2c1,EC50,[11],6.06 µM (active)
same,IC50,H9c2,> 79 µM (inactive)
O=c1cc(-c2ccncc2)oc2ccccc12,CC50,[12],36.7 µM (active)
same,IC50,H9c2,> 79 µM (inactive)
O=C(Nc1nnc(-c2ccco2)o1)c1ccc2ccccc2c1,EC50,[13],12.8 µM (active)
same,EC50,Streptokinase A,> 150 µM (not active)
same,EC50,Streptococcus,> 150 µM (not active)
same,IC50,H9c2,> 79 µM (inactive)
CN1CCN(c2ccc([N+](=O)[O-])c3cccnc23)CC1,EC50,[11],> 195 µM (not active)
same,EC50,[7],4 nM (active)
CCNC(=O)COc1cccc(C(=O)NCc2ccccc2)c1,EC50,cells [8],> 350 µM (not active)
same,EC50,cells [9],> 350 µM (not active)
CN(C)CCNC(=O)/C(=C/c1ccc(-c2cccc(Cl)c2)o1)NC(=O)c1ccccc1,EC50,[5],10.3 µM (active)
same,EC50,[6],10.3 µM (active)
same,EC50,[14],> 260 µM (inactive)
Cc1ccc(S(=O)(=O)N(C)C[C@@H]2Oc3ccc(NS(=O)(=O)c4ccccc4)cc3CC(=O)N([C@H](C)CO)C[C@@H]2C)cc1,AC50,[15],2.75 µM (active)
same,AC50,[16],8.38 µM (active)
same,AC50,[4],26.6 µM (active)
O=C(c1c(F)cccc1F)N1CCN(c2ncc(Br)cn2)CC1,EC50,[7],596 nM (active)
O=C(NCCCN1CCOCC1)c1cc(-c2ccccc2)on1,EC50,cells [8],11.5 µM (active)
same,EC50,cells [9],> 350 µM (not active)
FC(F)(F)c1cnc(N2CCN(C(S)=NCc3ccccc3)CC2)c(Cl)c1,EC50,cells [8],> 350 µM (not active)
same,EC50,cells [9],> 350 µM (not active)
CC(OC(=O)Cc1nnc(O)c2ccccc12)C(=O)Nc1ccccc1[N+](=O)[O-] (centres undefined),IC50,H9c2,> 79 µM (inactive)
